Test results from patent publication US5567711A, “Indole-3-carbonyl and indole-3-sulfonyl derivatives as platelet activating factor antagonists” (Abbott Laboratories, priority 1995, dated 1996).
pKi: −log10 of the molar value. Structures can show the parent of a compound that is named as a salt.

Each compound was assayed against PAF receptor (Oryctolagus cuniculus, UniProt G1TEI7) (assay: PAF receptor binding assay: inhibition of specific [^3 H]C18 -PAF binding to rabbit platelet membranes). Details: not given.
PAF receptor, sequence (G1TEI7 1-342): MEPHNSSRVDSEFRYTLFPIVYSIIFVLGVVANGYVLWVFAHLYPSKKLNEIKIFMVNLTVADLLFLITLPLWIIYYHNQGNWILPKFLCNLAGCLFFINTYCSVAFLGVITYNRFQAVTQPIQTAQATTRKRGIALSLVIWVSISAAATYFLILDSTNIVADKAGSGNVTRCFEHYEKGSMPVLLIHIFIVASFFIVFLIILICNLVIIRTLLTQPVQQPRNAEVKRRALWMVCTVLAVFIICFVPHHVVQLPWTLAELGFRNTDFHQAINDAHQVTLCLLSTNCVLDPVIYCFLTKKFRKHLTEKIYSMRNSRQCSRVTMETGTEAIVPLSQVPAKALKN

Point of comparison: `CCOCCn1cc(C(=O)CN2CCC(n3c(C)nc4cnccc43)CC2)c2c(C(=O)OC)cccc21` [Example 23], pKi 8.28. Against it:
- CCOCCn1cc(C(=O)N2CCC(Cn3c(C)nc4cnccc43)CC2)c2ccc(-c3ccc(F)cc3)cc21 [Example 8, 1-(2-ethoxyethyl)-6-(4-fluorophenyl)-3-{[4-(1H-2-methylimidazo[4,5-c]pyrid-1-yl)methylpiperidin-1-yl]carbonyl}indole hydrochloride] — 0.64 log units higher, 8.92
- CCOCCn1cc(C(=O)CN2CCC(n3c(C)nc4cnccc43)CC2)c2c(Cl)cccc21 [Example 25] — 0.28 log units lower, 8.00
- CCOCCn1cc(C(=O)CN2CCC(n3c(C)nc4cnccc43)CC2)c2c(C)cccc21 [Example 28, 1-(2-ethoxyethyl)-4-methyl-3-{[4-(1H-2-methylimidazo[4.5-c]pyrid-1-yl)piperidin-1-yl]acetyl}indole] — 1.02 log units higher, 9.30

Same assay, conditions: @ 1.0 μM; rabbit platelet membranes; 0.6 nM [^3 H]C18 -PAF; 60 minutes at room temperature

`Cc1nc2cnccc2n1C1CCN(S(=O)(=O)c2c[nH]c3cc(-c4ccc(F)cc4)ccc23)CC1` [Example 13, 6-(4-fluorophenyl)-3-{[4-(1H-2-methylimidazo[4.5-c]pyrid-1-yl)piperidin-1-yl]sulfonyl}indole] gave an inhibition at 1 µM of 32%.

Same assay, conditions: rabbit platelet membranes; 0.6 nM [^3 H]C18 -PAF; 60 minutes at room temperature; pH 7.0; Ki by Cheng and Prusoff from IC50

For `CCOCCn1cc(C(=O)N2CCC(Cn3c(C)nc4cnccc43)CC2)c2c(Cl)cccc21` [Example 9, 1-(2-ethoxyethyl)-4-chloro-3-{[4-(1H-2-methylimidazo[4.5-c]pyrid-1-yl)methylpiperidin-1-yl]carbonyl}indole hydrochloride], the pKi was 7.54.

Same assay, conditions: rabbit platelet membranes; 0.6 nM [^3 H]C18 -PAF; 60 minutes at room temperature; pH 7.0; Ki by Cheng and Prusoff from IC50; read-out: Ki

Point of comparison: `Cc1nc2cnccc2n1C1CCN(CC(=O)c2cn(C(=O)N(C)C)c3cccc(Cl)c23)CC1` [Example 26, 4-chloro-3-{[4-(1H-2-methylimidazo[4.5-c]pyrid-1-yl)piperidin-1-yl]acetyl}indole-1-carboxylic acid dimethyl amide], pKi 7.92. Against it:
- Cc1nc2cnccc2n1C1CCN(C(=O)c2cn(C(=O)N(C)C)c3cc(-c4ccc(F)cc4)ccc23)CC1 [Example 1, 6-(4-fluorophenyl)-3-{[4-(1H-2-methylimidazo[4.5-c]pyrid-1-yl)piperidin-1-yl]carbonyl)indole-1-carboxylic acid dimethyl amide hydrochloride] — 0.56 log units higher, 8.48
- Cc1nc2cnccc2n1C1CCN(C(=O)c2c[nH]c3cc(-c4ccc(F)cc4)ccc23)CC1 [Example 2, 6-(4-fluorophenyl)-3-{[4-(1H-2-methylimidazo[4.5-c]pyrid-1-yl)piperidin-1-yl]carbonyl}indole hydrochloride] — 0.56 log units lower, 7.36
- Cc1nc2cnccc2n1C1CCN(C(=O)c2c[nH]c3ccccc23)CC1 [Example 3, 3-{[4-(1H-2-methylimidazo[4,5-c]pyrid-1-yl)piperidin-1-yl]carbonyl}indole hydrochloride] — 0.92 log units lower, 7.00
- COC(=O)c1cccc2c1c(C(=O)N1CCC(n3c(C)nc4cnccc43)CC1)cn2C(=O)N(C)C [Example 4, 3-{[4-(1H-2-methylimidazo[4.5-c]pyrid-1-yl)piperidin-1-yl]carbonyl}indole-1,4-dicarboxylic acid 1-dimethyl amide-4-methyl ester hydrochloride] — 1.07 log units lower, 6.85
- COC(=O)c1cccc2c1c(C(=O)N1CCC(Cn3c(C)nc4cnccc43)CC1)cn2C(=O)N(C)C [Example 5, 1-N,N-dimethylcarbamoyl-4-methoxycarbonyl-3-{[4-(1H-2-methylimidazo[4.5-c]pyrid-1-yl)methylpiperidin-1-yl]carbonyl}indole-1,4-dicarboxylic acid 1-dimethyl amide-4-methyl ester hydrochloride] — 0.79 log units lower, 7.13
- Cc1nc2cnccc2n1CC1CCN(C(=O)c2cn(C(=O)N(C)C)c3cc(-c4ccc(F)cc4)ccc23)CC1 [Example 6, 6-(4-fluorophenyl)-3-{[4-(1H-2-methylimidazo[4.5-c]pyrid-1-yl)methylpiperidin-1-yl]carbonyl}indole-1-carboxylic acid dimethyl amide hydrochloride] — 0.68 log units higher, 8.60
- Cc1nc2cnccc2n1CC1CCN(C(=O)c2cn(C(=O)N(C)C)c3cccc(Cl)c23)CC1 [Example 7, 4-chloro-3-{[4-(1H-2-methylimidazo[4.5-c]pyrid-1-yl)methylpiperidin-1-yl]carbonyl}indole-1-carboxylic acid dimethyl amide hydrochloride] — within 0.2 log units, 7.74
- COC(=O)c1cccc2c1c(C(=O)N1CCN(CCn3c(C)nc4cnccc43)CC1)cn2C(=O)N(C)C [Example 10, 3-[{4-[(2-(1H-2-methylimidazo[4.5-c]pyrid-1-yl)ethyl]piperazin-1-yl}carbonyl]indole-1,4-dicarboxylic acid 1-dimethyl amide 4-methyl ester hydrochloride] — 1.22 log units lower, 6.70
- Cc1nc2cnccc2n1CCN1CCN(C(=O)c2cn(C(=O)N(C)C)c3cc(-c4ccc(F)cc4)ccc23)CC1 [Example 11, 6-(4-fluorophenyl)-3-[{4-[(2-(1H-2-methylimidazo[4.5-c]pyrid-1-yl)ethyl]piperazin-1-yl}carbonyl]indole-1-carboxylic acid dimethyl amide hydrochloride] — 0.40 log units lower, 7.52
- Cc1nc2cnccc2n1C1CCN(S(=O)(=O)c2cn(C(=O)OC(C)(C)C)c3cc(-c4ccc(F)cc4)ccc23)CC1 [Example 12, 6-(4-fluorophenyl)-3-{[4-(1H-2-methylimidazo[4.5-c]pyrid-1-yl)piperidin-1-yl]sulfonyl}indole-1-carboxylic acid t-butyl ester] — 1.45 log units lower, 6.47
- Cc1nc2cnccc2n1C1CCN(S(=O)(=O)c2cn(C(=O)N(C)C)c3cc(-c4ccc(F)cc4)ccc23)CC1 [Example 14, 6-(4-fluorophenyl)-3-{[4-(1H-2-methylimidazo[4.5-c]pyrid-1-yl)piperidin-1-yl]sulfonyl}indole-1-carboxylic acid dimethyl amide hydrochloride] — 1.00 log units lower, 6.92
- Cc1nc2cnccc2n1CC1CCN(S(=O)(=O)c2cn(C(=O)OC(C)(C)C)c3cc(-c4ccc(F)cc4)ccc23)CC1 [Example 15, 6-(4-fluorophenyl)-3-{[4-(1H-2-methylimidazo[4.5-c]pyrid-1-yl)methylpiperidin-1-yl]sulfonyl)indole-1-carboxylic acid t-butyl ester] — 0.73 log units lower, 7.19
- Cc1nc2cnccc2n1CC1CCN(S(=O)(=O)c2c[nH]c3cc(-c4ccc(F)cc4)ccc23)CC1 [Example 16, 6-(4-fluorophenyl)-3-{[4-(1H-2-methylimidazo[4.5-c]pyrid-1-yl)methylpiperidin-1-yl]sulfonyl}indole] — 1.32 log units lower, 6.60
- Cc1nc2cnccc2n1CC1CCN(S(=O)(=O)c2cn(C(=O)N(C)C)c3cc(-c4ccc(F)cc4)ccc23)CC1 [Example 17, 6-(4-fluorophenyl)-3-{[4-(1H-2-methylimidazo[4.5-c]pyrid-1-yl)methylpiperidin-1-yl]sulfonyl}indole-1-carboxylic acid dimethyl amide] — 1.00 log units higher, 8.92
- Cc1nc2cnccc2n1CCN1CCN(S(=O)(=O)c2cn(C(=O)N(C)C)c3cc(-c4ccc(F)cc4)ccc23)CC1 [Example 18] — 0.96 log units lower, 6.96
- Cc1nc2cnccc2n1C1CCN(CC(=O)c2c[nH]c3cc(-c4ccc(F)cc4)ccc23)CC1 [Example 19, 6-(4-fluorophenyl)-3-{[4-(1H-2-methylimidazo[4.5-c]pyrid-1-yl)piperidin-1-yl]acetyl}indole] — 0.90 log units lower, 7.02
- Cc1nc2cnccc2n1C1CCN(CC(=O)c2cn(C(=O)N(C)C)c3cc(-c4ccc(F)cc4)ccc23)CC1 [Example 20] — 0.68 log units higher, 8.60
- COC(=O)c1cccc2[nH]cc(C(=O)CN3CCC(n4c(C)nc5cnccc54)CC3)c12 [Example 21, 3-{[4-(1H-2-methylimidazo[4.5-c]pyrid-1-yl)piperidin-1-yl]acetyl}indole-4-carboxylic acid methy ester] — within 0.2 log units, 7.85
- COC(=O)c1cccc2c1c(C(=O)CN1CCC(n3c(C)nc4cnccc43)CC1)cn2C(=O)N(C)C [Example 22, 3-{[4-(1H-2-methylimidazo[4.5-c]pyrid-1-yl)piperidin-1-yl]acetyl}indole-1,4-dicarboxylic acid 1-dimethyl amide 4-methyl ester] — the same, 7.92
- Cc1nc2cnccc2n1C1CCN(CC(=O)c2c[nH]c3cccc(Cl)c23)CC1 [Example 24, 4-chloro-3-{[4-(1H-2-methylimidazo[4.5-c]pyrid-1-yl)piperidin-1-yl]acetyl}indole] — 0.40 log units lower, 7.52
- Cc1cccc2[nH]cc(C(=O)CN3CCC(n4c(C)nc5cnccc54)CC3)c12 [Example 27, 4-methyl-3-{[4-(1H-2-methylimidazo[4.5-c]pyrid-1-yl)piperidin-1-yl]acetyl}indole] — 0.77 log units lower, 7.15
- Cc1cccc2c1c(C(=O)CN1CCC(n3c(C)nc4cnccc43)CC1)cn2C(=O)N(C)C [Example 29, 4-methyl-3-{[4-(1H-2-methylimidazo[4.5:c]pyrid-1-yl)piperidin-1-yl]acetyl}indole-1-carboxylic acid dimethyl amide] — 0.78 log units higher, 8.70
- COC(=O)c1cccc2c1c(C(=O)[C@H]1CC[C@H](Cn3c(C)nc4cnccc43)CC1)cn2C(=O)N(C)C [Example 30, 3-{[trans-4-[(1H-2-methylimidazo[4.5-c]pyrid-1-yl)methylcyclohex-1-yl]carbonyl}indole-1,4-dicarboxylic acid 1-dimethyl amide 4-methyl ester hydrochloride] — 0.70 log units higher, 8.62
